According to US9204653B2, “5-fluoro pyrimidine derivatives” (DOW AGROSCIENCES LLC, priority 2008, dated 2015):
Read-outs that look alike come from different tables or passages of the source.

Test system: Mycosphaerella graminicola; Anamorph: Septoria tritici; Bayer Code SEPTTR
Assay: Leaf blotch of wheat, foliar fungicide treatment, one day protectant (1DP) or three day curative (3DC)
Type: in vivo, Septoria tritici on wheat plants (variety Yuma)
Settings: Zymoseptoria tritici, percent control rating; for pest or weed control at 100 ppm: read-out: SEPTTR 3DC 100 ppm
[1] = 24 h, one day protectant (1DP), 25 ppm (first 1DP column), read-out: SETTTR 1DP 25 ppm
[2] = 24 h, one day protectant (1DP), 25 ppm as printed (second 1DP column), read-out: SETTTR 1DP 25 ppm
[3] = 72 h, three day curative (3DC), 25 ppm, read-out: SEPTTR 3DC 25 ppm

Row | SMILES | pest or weed control at 25 ppm [1] [%] | pest or weed control at 25 ppm [2] [%] | pest or weed control at 25 ppm [3] [%] | pest or weed control at 100 ppm (72 h, three day curative (3DC)) [%]
1 | O=S(=O)(Nc1nc(OCc2ccccc2)ncc1F)c1ccccc1 [Compound 1010] | 0 to 25 | 0 to 25 | 0 to 25 | 0 to 25
2 | COc1cccc(COc2ncc(F)c(NS(C)(=O)=O)n2)c1 [Compound 1011] | 0 to 25 | 0 to 25 | 0 to 25 | 0 to 25
3 | COc1cccc(COc2ncc(F)c(NS(=O)(=O)C(C)C)n2)c1 [Compound 1012] | 0 to 25 | 0 to 25 | 0 to 25 | 0 to 25
4 | COc1cccc(COc2ncc(F)c(NS(=O)(=O)c3ccccc3)n2)c1 [Compound 1013] | 0 to 25 | 0 to 25 | 0 to 25 | 0 to 25
5 | Fc1ccc(COc2ncc(F)c(/N=N/c3ccccc3Cl)n2)cc1 [Compound 1014] | 0 to 25 | 0 to 25 | 0 to 25 | 76 to 100
6 | COc1nn(C)c(C(F)(F)F)c1S(=O)(=O)Nc1nc(OCc2ccc(C)cc2)ncc1F [Compound 1015] | 0 to 25 | 0 to 25 | 26 to 50 | 76 to 100
7 | COc1ccnc(Cl)c1S(=O)(=O)Nc1nc(OCc2ccc(C)cc2)ncc1F [Compound 1016] | 0 to 25 | 0 to 25 | 51 to 75 | 51 to 75
8 | COc1ccc(/C(C)=N/Nc2nc(OC)ncc2F)cc1 [Compound 1017] | 0 to 25 | 26 to 50 | 0 to 25 | 51 to 75
9 | CCC(C)/C(C)=N/Nc1nc(OC)ncc1F (centres unmarked) [Compound 1018] | 0 to 25 | 0 to 25 | 0 to 25 | 0 to 25
10 | COc1ncc(F)c(N/N=C(\C)c2cc3ccccc3o2)n1 [Compound 1019] | 26 to 50 | 26 to 50 | 0 to 25 | 0 to 25
11 | COc1ncc(F)c(N/N=C/c2cc(C)nn2C)n1 [Compound 1020] | 0 to 25 | 0 to 25 | 26 to 50 | 0 to 25
12 | CCC(/C=N/Nc1nc(OC)ncc1F)CC [Compound 1021] | 0 to 25 | 26 to 50 | 26 to 50 | 26 to 50
13 | COc1ncc(F)c(N/N=C/C2CC2)n1 [Compound 1022] | 0 to 25 | 0 to 25 | 0 to 25 | 26 to 50
14 | COc1ncc(F)c(N/N=C/c2ccco2)n1 [Compound 1023] | 0 to 25 | 0 to 25 | 0 to 25 | 0 to 25
15 | COc1ncc(F)c(N/N=C/c2cccs2)n1 [Compound 1024] | 0 to 25 | 0 to 25 | 0 to 25 | 0 to 25
16 | COc1ncc(F)c(N/N=C(\C)c2sc(C)nc2C)n1 [Compound 1025] | 0 to 25 | 0 to 25 | 26 to 50 | 0 to 25
17 | COc1ncc(F)c(N/N=C(\C)c2ccc(F)cc2)n1 [Compound 1026] | 26 to 50 | 26 to 50 | 0 to 25 | 26 to 50
18 | Cc1ccc(COc2ncc(F)c(NS(=O)(=O)c3c(Br)cnn3C)n2)cc1 [Compound 1027] | 0 to 25 | 0 to 25 | 0 to 25 | 0 to 25
19 | Fc1ccccc1NNc1nc(OCc2ccccc2)ncc1F [Compound 1028] | 0 to 25 | 0 to 25 | 0 to 25 | 0 to 25
20 | Fc1cnc(OCc2ccccc2)nc1NNc1cccc(C(F)(F)F)c1 [Compound 1029] | 0 to 25 | 0 to 25 | 0 to 25 | 0 to 25
21 | Cc1ccc(COc2ncc(F)c(NNc3ccc(Br)cc3)n2)cc1 [Compound 1030] | 0 to 25 | 0 to 25 | 0 to 25 | 0 to 25
22 | COc1cccc(COc2ncc(F)c(NNc3cc(C)nc(C)n3)n2)c1 [Compound 1032] | 26 to 50 | 26 to 50 | 0 to 25 | 0 to 25

Row | SMILES | pest or weed control at 25 ppm [1] [%] | pest or weed control at 25 ppm [2] [%] | pest or weed control at 25 ppm [3] [%] | pest or weed control at 100 ppm (72 h, three day curative (3DC)) [%]
23 | C/C=C(C)/C=N/Nc1nc(OC)ncc1F [Compound 1033] | 0 to 25 | 0 to 25 | 0 to 25 | 26 to 50
24 | COc1ncc(F)c(NNc2ccccc2Cl)n1 [Compound 1034] | 0 to 25 | 0 to 25 | 0 to 25 | 0 to 25
25 | Fc1cnc(OCc2ccccc2)nc1NNc1ccc(Br)cc1 [Compound 1035] | 0 to 25 | 0 to 25 | 0 to 25 | 0 to 25
26 | Cc1ccc(C)c(NNc2nc(OCc3ccccc3)ncc2F)c1 [Compound 1036] | 0 to 25 | 0 to 25 | 0 to 25 | 0 to 25
27 | Fc1cnc(OCc2ccccc2)nc1NNc1ccc(Cl)c(Cl)c1 [Compound 1037] | 0 to 25 | 26 to 50 | 0 to 25 | 0 to 25
28 | Fc1cnc(OCc2ccccc2)nc1NNc1nccc(C(F)(F)F)n1 [Compound 1038] | 0 to 25 | 0 to 25 | 0 to 25 | 0 to 25
29 | Cc1ccc(COc2ncc(F)c(NNc3ccccc3F)n2)cc1 [Compound 1039] | 0 to 25 | 0 to 25 | 0 to 25 | 0 to 25
30 | Cc1ccc(COc2ncc(F)c(NNc3ccc(Cl)nn3)n2)cc1 [Compound 1040] | 0 to 25 | 0 to 25 | 0 to 25 | 0 to 25
31 | Cc1ccc(COc2ncc(F)c(NNc3nccc(C(F)(F)F)n3)n2)cc1 [Compound 1041] | 0 to 25 | 0 to 25 | 0 to 25 | 0 to 25
32 | Fc1ccc(COc2ncc(F)c(NNc3ccccc3F)n2)cc1 [Compound 1042] | 0 to 25 | 0 to 25 | 0 to 25 | 26 to 50
33 | Fc1ccc(COc2ncc(F)c(NNc3nccc(C(F)(F)F)n3)n2)cc1 [Compound 1043] | 0 to 25 | 0 to 25 | 0 to 25 | 0 to 25
34 | Fc1ccc(COc2ncc(F)c(NNc3nc4ccccc4s3)n2)cc1 [Compound 1044] | 0 to 25 | 0 to 25 | 0 to 25 | 0 to 25
35 | COc1cccc(COc2ncc(F)c(NNc3nccc(C(F)(F)F)n3)n2)c1 [Compound 1045] | 0 to 25 | 0 to 25 | 0 to 25 | 0 to 25
36 | COc1cccc(COc2ncc(F)c(NNc3nc4ccccc4s3)n2)c1 [Compound 1046] | 0 to 25 | 0 to 25 | 0 to 25 | 0 to 25
37 | Fc1ccc(COc2ncc(F)c(NNc3cccc(F)n3)n2)cc1 [Compound 1047] | 0 to 25 | 0 to 25 | 26 to 50 | 26 to 50
38 | COc1ncc(F)c(NNc2ccc(Cl)nn2)n1 [Compound 1048] | 0 to 25 | 0 to 25 | 0 to 25 | 0 to 25
39 | COc1ncc(F)c(NNc2nccc(C(F)(F)F)n2)n1 [Compound 1049] | 0 to 25 | 0 to 25 | 26 to 50 | 26 to 50
40 | COc1ncc(F)c(NNc2ccccn2)n1 [Compound 1050] | 0 to 25 | 0 to 25 | 0 to 25 | 26 to 50
41 | COc1ncc(F)c(NNc2ncnc3ccccc23)n1 [Compound 1051] | 0 to 25 | 0 to 25 | 26 to 50 | 0 to 25
42 | COc1ncc(F)c(NNc2ccccc2OC)n1 [Compound 1052] | 0 to 25 | 0 to 25 | 0 to 25 | 0 to 25
43 | COc1ncc(F)c(NOCc2ccco2)n1 [Compound 1053] | 0 to 25 | 0 to 25 | 0 to 25 | 0 to 25
44 | COc1ncc(F)c(N(O)Cc2ccc(Cl)nc2)n1 [Compound 1054] | 0 to 25 | 0 to 25 | 0 to 25 | 0 to 25
